From patent US8138189B2, “Substituted benzene compounds as modulators of the glucocorticoid receptor” (Hoffman-La Roche Inc., priority 2009, dated 2012)

These compounds were tested against T1, full length human recombinant glucocorticoid receptor (Homo sapiens, UniProt P04150) (assay: Glucocorticoid Receptor Binding Assay (fluorescence polarization competitor assay, Fluormone GS Far Red tracer)).
T1 construct: partially purified full length human recombinant glucocorticoid receptor; purchased Panvera/Invitrogen PV4302
T1 sequence (P04150 1-777): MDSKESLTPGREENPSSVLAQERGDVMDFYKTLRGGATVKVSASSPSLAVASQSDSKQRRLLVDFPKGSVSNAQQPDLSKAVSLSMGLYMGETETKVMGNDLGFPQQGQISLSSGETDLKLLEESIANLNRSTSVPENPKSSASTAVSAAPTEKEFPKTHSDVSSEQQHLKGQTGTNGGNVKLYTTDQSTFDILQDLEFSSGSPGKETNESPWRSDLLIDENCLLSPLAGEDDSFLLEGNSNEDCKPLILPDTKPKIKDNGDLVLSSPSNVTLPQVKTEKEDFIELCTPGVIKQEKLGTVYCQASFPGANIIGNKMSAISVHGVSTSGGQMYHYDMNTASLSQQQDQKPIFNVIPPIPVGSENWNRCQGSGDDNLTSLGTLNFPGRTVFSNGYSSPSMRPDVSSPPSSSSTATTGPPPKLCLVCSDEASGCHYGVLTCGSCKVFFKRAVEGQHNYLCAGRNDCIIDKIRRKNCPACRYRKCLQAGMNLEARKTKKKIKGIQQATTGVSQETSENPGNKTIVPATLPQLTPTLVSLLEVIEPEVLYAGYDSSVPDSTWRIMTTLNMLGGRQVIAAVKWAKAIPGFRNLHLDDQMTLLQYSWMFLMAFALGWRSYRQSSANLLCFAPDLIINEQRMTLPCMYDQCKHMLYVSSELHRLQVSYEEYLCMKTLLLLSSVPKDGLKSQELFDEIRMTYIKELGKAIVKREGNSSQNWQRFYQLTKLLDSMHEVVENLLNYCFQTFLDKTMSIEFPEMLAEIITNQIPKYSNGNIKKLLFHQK
How it was run: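 Partially purified full-length recombinant human GR with a stabilizing coactivator peptide was incubated with Fluormone GS Far Red tracer and serially diluted compound for 3 h at 22 °C in the dark, pH 7.4. Fluorescence polarization was read at 610-660 nm. IC50 came from sigmoidal fitting, and Ki from Cheng-Prusoff.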
For `CC(c1ccc(OCc2ccc(C(=O)O)cc2)cc1Cl)C(O)(c1ccncc1)C(F)(F)F` (stereo not shown) [Example 107, 4-[3-Chloro-4-(3,3,3-trifluoro-2-hydroxy-1-methyl-2-pyridin-4-yl-propyl)-phenoxymethyl]-benzoic acid], the Ki was 30.8 nM.
`COc1cc(C(=O)O)ccc1COc1ccc(C(C)C(O)(c2ccncc2)C(F)(F)F)c(Cl)c1` (stereo not shown) [Example 109, 4-[3-Chloro-4-(3,3,3-trifluoro-2-hydroxy-1-methyl-2-pyridin-4-yl-propyl)-phenoxymethyl]-3-methoxy-benzoic acid] showed a Ki of 79.2 nM.
Work on `COC(=O)c1ccc(COc2ccc(C(C)C(O)(c3ccnc(Cl)c3)C(F)(F)F)c(Cl)c2)nc1` (stereo not shown) [Example 110, 6-{3-Chloro-4-[2-(2-chloro-pyridin-4-yl)-3,3,3-trifluoro-2-hydroxy-1-methyl-propyl]-phenoxymethyl}-nicotinic acid methyl ester] yielded a Ki of 6.4 nM.
For `CC(c1ccc(OCc2ccc(C(=O)O)cn2)cc1Cl)C(O)(c1ccnc(Cl)c1)C(F)(F)F` (stereo not shown) [Example 111, 6-{3-Chloro-4-[2-(2-chloro-pyridin-4-yl)-3,3,3-trifluoro-2-hydroxy-1-methyl-propyl]-phenoxymethyl}-nicotinic acid], the Ki was 13 nM.
Work on `COC(=O)c1cnc(COc2ccc(C(C)C(O)(c3ccnc(Cl)c3)C(F)(F)F)c(Cl)c2)cn1` (stereo not shown) [Example 112, 5-{3-Chloro-4-[2-(2-chloro-pyridin-4-yl)-3,3,3-trifluoro-2-hydroxy-1-methyl-propyl]-phenoxymethyl}-pyrazine-2-carboxylic acid methyl ester] yielded a Ki of 9.2 nM.
`CC(c1ccc(OCc2cnc(C(=O)O)cn2)cc1Cl)C(O)(c1ccnc(Cl)c1)C(F)(F)F` (stereo not shown) [Example 113, 5-{3-Chloro-4-[2-(2-chloro-pyridin-4-yl)-3,3,3-trifluoro-2-hydroxy-1-methyl-propyl]-phenoxymethyl}-pyrazine-2-carboxylic acid] gave a Ki of 13.6 nM.
Work on `COC(=O)c1cnc(Oc2ccc(C(C)C(O)(c3ccnc(Cl)c3)C(F)(F)F)c(Cl)c2)cn1` (stereo not shown) [Example 114, 5-{3-Chloro-4-[2-(2-chloro-pyridin-4-yl)-3,3,3-trifluoro-2-hydroxy-1-methyl-propyl]-phenoxy}-pyrazine-2-carboxylic acid methyl ester] yielded a Ki of 24.2 nM.
`CC(c1ccc(Oc2cnc(C(=O)O)cn2)cc1Cl)C(O)(c1ccnc(Cl)c1)C(F)(F)F` (stereo not shown) [Example 115, 5-{3-Chloro-4-[2-(2-chloro-pyridin-4-yl)-3,3,3-trifluoro-2-hydroxy-1-methyl-propyl]-phenoxy}-pyrazine-2-carboxylic acid] gave a Ki of 96.8 nM.
`COC(=O)c1cnc(Oc2ccc(C(C)C(O)(c3ccnc(Cl)c3)C(F)(F)F)c(Cl)c2)nc1` (stereo not shown) [Example 116, 2-{3-Chloro-4-[2-(2-chloro-pyridin-4-yl)-3,3,3-trifluoro-2-hydroxy-1-methyl-propyl]-phenoxy}-pyrimidine-5-carboxylic acid methyl ester] showed a Ki of 40.6 nM.
For `CC(c1ccc(Oc2ncc(C(=O)O)cn2)cc1Cl)C(O)(c1ccnc(Cl)c1)C(F)(F)F` (stereo not shown) [Example 117, 2-{3-Chloro-4-[2-(2-chloro-pyridin-4-yl)-3,3,3-trifluoro-2-hydroxy-1-methyl-propyl]-phenoxy}-pyrimidine-5-carboxylic acid], the Ki was 111 nM.
For `COC(=O)c1ccc(Oc2ccc(C(C)C(O)(c3ccnc(Cl)c3)C(F)(F)F)c(Cl)c2)nc1` (stereo not shown) [Example 118, 6-{3-Chloro-4-[2-(2-chloro-pyridin-4-yl)-3,3,3-trifluoro-2-hydroxy-1-methyl-propyl]-phenoxy}-nicotinic acid methyl ester], the Ki was 10.8 nM.
With `CC(c1ccc(Oc2ccc(C(=O)O)cn2)cc1Cl)C(O)(c1ccnc(Cl)c1)C(F)(F)F` (stereo not shown) [Example 119, 6-{3-Chloro-4-[2-(2-chloro-pyridin-4-yl)-3,3,3-trifluoro-2-hydroxy-1-methyl-propyl]-phenoxy}-nicotinic acid] the Ki was 20.4 nM.
Work on `COc1cc(C(=O)O)ccc1COc1ccc(C(C)C(O)(c2cnn3ccccc23)C(F)(F)F)c(Cl)c1` (stereo not shown) [Example 129, 4-[3-Chloro-4-(3,3,3-trifluoro-2-hydroxy-1-methyl-2-pyrazolo[1,5-a]pyridin-3-yl-propyl)-phenoxymethyl]-3-methoxy-benzoic acid] yielded a Ki of 267 nM.
For `COc1cc(Oc2ccc(Cl)c(C(C)C(O)(c3ccnc(Cl)c3)C(F)(F)F)c2)ccc1C(=O)O` (stereo not shown) [Example 131, 4-{4-Chloro-3-[2-(2-chloro-pyridin-4-yl)-3,3,3-trifluoro-2-hydroxy-1-methyl-propyl]-phenoxy}-2-methoxy-benzoic acid], the Ki was 437 nM.
`C[C@H](c1ccc(Oc2ccc(OCC(=O)O)cc2)cc1Cl)[C@@](O)(c1ccc(=O)n(C)c1)C(F)(F)F` [Example 160] was tested, and the Ki was 1.6 nM.
`COC(=O)c1ccc(-c2ccc([C@H](C)[C@](O)(c3ccc(=O)n(C)c3)C(F)(F)F)c(Cl)c2)cc1F` [Example 166, 3′-Chloro-3-fluoro-4′-[3,3,3-trifluoro-2-hydroxy-1-methyl-2-(1-methyl-6-oxo-1,6-didydro-pyridin-3-yl)-propyl]-biphenyl-4-carboxylic acid methyl ester] was tested, and the Ki was 6.2 nM.
`C[C@@H](c1ccc(-c2ccc(C(=O)O)c(F)c2)cc1Cl)[C@](O)(c1ccc(=O)n(C)c1)C(F)(F)F` [Example 167, 3′-Chloro-3-fluoro-4′-[3,3,3-trifluoro-2-hydroxy-1-methyl-2-(1-methyl-6-oxo-1,6-dihydro-pyridin-3-yl)-propyl]-propylphiphenyl-4-carboxylic acid] showed a Ki of 45.9 nM.
`COC(=O)c1ccc(-c2ccc([C@H](C)[C@](O)(c3ccc(=O)n(C)c3)C(F)(F)F)c(Cl)c2)cc1Cl` [Example 168, 3,3′-Dichloro-4′-[3,3,3-trifluoro-2-hydroxy-1-methyl-2-(1-methyl-6-oxo-1,6-dihydro-pyridin-3-yl)-propyl]-propylphiphenyl-4-carboxylic acid methyl ester] showed a Ki of 2.6 nM.
In the case of `Cc1cc([C@](O)([C@H](C)c2ccc(Oc3ccc(C(=O)O)c(Cl)c3)cc2Cl)C(F)(F)F)sc1C#N` [Example 235, 2-Chloro-4-{3-chloro-4-[2-(5-cyano-4-methyl-thiophen-2-yl)-3,3,3-trifluoro-2-hydroxy-1-methyl-propyl]-phenoxy}-benzoic acid], the Ki is reported as 1.8 nM.
Work on `Cc1cc([C@@](O)([C@@H](C)c2ccc(Oc3ccc(C(=O)O)cc3Cl)cc2Cl)C(F)(F)F)cn(C)c1=O` [Example 244, 3-Chloro-4-{3-chloro-4-[(1S,2S)-2-(1,5-dimethyl-6-oxo-1,6-dihydro-pyridin-3-yl)-3,3,3-trifluoro-2-hydroxy-1-methyl-propyl]-phenoxy}-benzoic acid] yielded a Ki of 601 nM.
For `Cc1cc([C@](O)([C@H](C)c2ccc(Oc3ccc(C(=O)O)cc3Cl)cc2Cl)C(F)(F)F)cn(C)c1=O` [Example 245, 3-Chloro-4-{3-chloro-4-[(1R,2R)-2-(1,5-dimethyl-6-oxo-1,6-dihydro-pyridin-3-yl)-3,3,3-trifluoro-2-hydroxy-1-methyl-propyl]-phenoxy}-benzoic acid], the Ki was 0.4 nM.
Work on `Cc1cc([C@@](O)([C@@H](C)c2ccc(Oc3ccc(C(=O)O)cn3)cc2Cl)C(F)(F)F)cn(C)c1=O` [Example 246, 6-{3-Chloro-4-[(1S,2S)-2-(1,5-dimethyl-6-oxo-1,6-dihydro-pyridin-3-yl)-3,3,3-trifluoro-2-hydroxy-1-methyl-propyl]-phenoxy}-nicotinic acid] yielded a Ki of 0.5 nM.
For `Cc1cc([C@](O)([C@H](C)c2ccc(Oc3ccc(C(=O)O)cn3)cc2Cl)C(F)(F)F)cn(C)c1=O` [Example 247, 6-{3-Chloro-4-[(1R,2R)-2-(1,5-dimethyl-6-oxo-1,6-dihydro-pyridin-3-yl)-3,3,3-trifluoro-2-hydroxy-1-methyl-propyl]-phenoxy}-nicotinic acid], the Ki was 14.8 nM.
`Cc1cc([C@@](O)([C@@H](C)c2ccc(Oc3ccc(C(=O)O)c(F)c3)cc2Cl)C(F)(F)F)cn(C)c1=O` [Example 248, 4-{3-Chloro-4-[(1S,2S)-2-(1,5-dimethyl-6-oxo-1,6-dihydro-pyridin-3-yl)-3,3,3-trifluoro-2-hydroxy-1-methyl-propyl]-phenoxy}-2-fluoro-benzoic acid] showed a Ki of 0.5 nM.
`Cc1cc([C@](O)([C@H](C)c2ccc(Oc3ccc(C(=O)O)c(F)c3)cc2Cl)C(F)(F)F)cn(C)c1=O` [Example 249, 4-{3-Chloro-4-[(1R,2R)-2-(1,5-dimethyl-6-oxo-1,6-dihydro-pyridin-3-yl)-3,3,3-trifluoro-2-hydroxy-1-methyl-propyl]-phenoxy}-2-fluoro-benzoic acid] was tested, and the Ki was 4.2 nM.
